Reference: PubChem BioAssay AID330 (DTP/NCI, 2004)
“And” between values parts separate entries of the source, which are not always exact repeats. Equal entries are not always repeated. Inconclusive results and toxic doses are left out.

Test system: P388 leukemia ip, CD2F1 mice, survival T/C
Assay: NCI In Vivo Anticancer Drug Screen. Data for tumor model P388 Leukemia (intraperitoneal) in CD2F1 (CDF1) mice
Conditions: endpoint: median survival time, higher = longer survival
Summary of the method: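 Mice carrying the transplanted tumor received test compound or vehicle. Survival was recorded in each group, and the value is the treated-group measurement divided by that of the vehicle-treated control group.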

[1] = dose: 60.0 mg/kg/injection, schedule: Q01DX005 (ip), vehicle: saline with Tween-80
[2] = dose: 120.0 mg/kg/injection, schedule: Q01DX005 (ip), vehicle: saline with Tween-80
[3] = dose: 240.0 mg/kg/injection, schedule: Q01DX005 (ip), vehicle: saline with Tween-80
[4] = dose: 25.0 mg/kg/injection, schedule: Q01DX005 (ip), vehicle: Klucel (hydroxypropylcellulose) (HPC)
[5] = dose: 50.0 mg/kg/injection, schedule: Q01DX005 (ip), vehicle: Klucel (hydroxypropylcellulose) (HPC)
[6] = dose: 100.0 mg/kg/injection, schedule: Q01DX005 (ip), vehicle: Klucel (hydroxypropylcellulose) (HPC)
[7] = dose: 200.0 mg/kg/injection, schedule: Q01DX005 (ip), vehicle: Klucel (hydroxypropylcellulose) (HPC)
[8] = dose: 50.0 mg/kg/injection, schedule: Q01DX009 (ip), vehicle: saline

`c1ccc2c3c(ccc2c1)Oc1ccc2ccccc2c1C3CCC1c2c(ccc3ccccc23)Oc2ccc3ccccc3c21` was tested, and the T/C [1] was 96 % of control, the T/C [2] was 95 % of control and the T/C [3] was 86 % of control.
With `c1ccc(OCCC[P+](c2ccccc2)(c2ccccc2)c2ccccc2)cc1` the T/C (dose: 0.7 mg/kg/injection, schedule: Q01DX010 (ip), vehicle: carboxymethylcellulose (CMC)) was 120 % of control, the T/C (dose: 1.5 mg/kg/injection, schedule: Q01DX010 (ip), vehicle: carboxymethylcellulose (CMC)) was 110 % of control and the T/C (dose: 3.0 mg/kg/injection, schedule: Q01DX010 (ip), vehicle: carboxymethylcellulose (CMC)) was 120 % of control. The T/C (dose: 4.1 mg/kg/injection, schedule: Q01DX009 (ip), vehicle: saline sonified) was 113 % of control and the T/C (dose: 6.25 mg/kg/injection, schedule: Q01DX009 (ip), vehicle: saline sonified) was 118 % of control.
With `C=CCC(=C)C(=O)OC` the T/C (dose: 12.5 mg/kg/injection, schedule: Q01DX009 (ip), vehicle: water) was 103 % of control, the T/C (dose: 25.0 mg/kg/injection, schedule: Q01DX009 (ip), vehicle: water) was 104 % of control and the T/C (dose: 50.0 mg/kg/injection, schedule: Q01DX009 (ip), vehicle: water) was 102 % of control. The T/C (dose: 100.0 mg/kg/injection, schedule: Q01DX009 (ip), vehicle: water) was 102 % of control and the T/C (dose: 200.0 mg/kg/injection, schedule: Q01DX009 (ip), vehicle: water) was 103 % of control.
With `CCC(=O)[O][Bi]([c]1ccccc1)[c]1ccccc1` the T/C [4] was 99 % of control and 116 % of control, the T/C [5] was 111 % of control and 114 % of control and 115 % of control and the T/C [6] was 106 % of control and 124 % of control. For the same compound, the T/C [7] was 168 % of control.
With `O=C(OC1C2CCC2C2CC21)c1ccc([N+](=O)[O-])cc1[N+](=O)[O-]` (stereo not given) the T/C [8] was 105 % of control, the T/C (dose: 100.0 mg/kg/injection, schedule: Q01DX009 (ip), vehicle: saline) was 99 % of control and 92 % of control and the T/C (dose: 200.0 mg/kg/injection, schedule: Q01DX009 (ip), vehicle: saline) was 92 % of control and 93 % of control.
In the case of `COc1ccc(S(=O)(=O)N/N=C/c2cc([N+](=O)[O-])cc(I)c2O)cc1OC`, the T/C [1] is reported as 97 % of control, the T/C [2] is reported as 94 % of control and the T/C [3] is reported as 91 % of control.
With `CC(C)c1ccc(C2C3CCN2CC3)cc1` (stereo not given) the T/C [8] was 91 % of control.
In the case of `CCCCOC(=O)NC(=O)c1cc2ccc(N(CC)CC)cc2oc1=O`, the T/C [1] is reported as 95 % of control, the T/C [2] is reported as 87 % of control and the T/C [3] is reported as 87 % of control.
For `N#CCCN(CCC#N)c1ccc(/C=C2/C=C(c3ccccc3)OC2=O)cc1`, the T/C (dose: 100.0 mg/kg/injection, schedule: Q01DX001 (ip), vehicle: saline with Tween-80) was 97 % of control, the T/C (dose: 200.0 mg/kg/injection, schedule: Q01DX001 (ip), vehicle: saline with Tween-80) was 94 % of control and the T/C (dose: 400.0 mg/kg/injection, schedule: Q01DX001 (ip), vehicle: saline with Tween-80) was 90 % of control.
For `CCc1ccc(-n2c(C)nc3[nH]cc(C)c3c2=N)cc1`, the T/C (dose: 12.5 mg/kg/injection, schedule: Q01DX005 (ip), vehicle: Klucel (hydroxypropylcellulose) (HPC)) was 100 % of control, the T/C [4] was 100 % of control and the T/C [5] was 98 % of control and 100 % of control.
In the case of `Cc1cn(C23CC4CC(CC(C4)C2)C3)c(=O)[nH]c1=O`, the T/C [5] is reported as 101 % of control, the T/C [6] is reported as 101 % of control and the T/C [7] is reported as 97 % of control.
With `O=C(O)C(O)C(O)C1[O][Sb]([c]2ccc([N+](=O)[O-])cc2)[O]C1CO` (stereo not given) the T/C (dose: 50.0 mg/kg/injection, schedule: Q01DX005 (ip), vehicle: saline) was 98 % of control, the T/C (dose: 100.0 mg/kg/injection, schedule: Q01DX005 (ip), vehicle: saline) was 107 % of control and the T/C (dose: 200.0 mg/kg/injection, schedule: Q01DX005 (ip), vehicle: saline) was 118 % of control.
For `FC1(F)SC(F)(F)S1`, the T/C [5] was 108 % of control, the T/C [6] was 108 % of control and the T/C [7] was 108 % of control.
For `Cc1cc2c(=O)cc(-c3ccccc3)oc2c(C(N)=O)c1C`, the T/C [1] was 99 % of control, the T/C [2] was 98 % of control and the T/C [3] was 93 % of control.
